From patent publication US8178506B2, “Oligomeric compounds and compositions for use in modulation of small non-coding RNAs” (Regulus Therapeutics Inc., priority 2003, dated 2012) come the findings set out here.

In the oligonucleotide strings, read from the 5' end, every base follows the letter of its sugar. An asterisk marks phosphorothioate; unmarked linkages are phosphodiester. Other units and linkages are bracketed, terminal groups are in braces. A string of capitals states the bases alone. e = 2'-O-(2-methoxyethyl) (MOE); [5mC] = 5-methylcytosine; d = 2'-deoxy (DNA)

One series relates to T47D cells. The series can be described thus: Caspase-3 activity assay (apoptosis) in T47D cells. The note with it: for Fold Increase over UTC (caspase-3 activity, apoptosis) / Fold Increase over UTC (caspase activity): T47D cells, 48 hours; for Fold Increase over UTC (caspase-3 activity, apoptosis): 200 nM oligomeric compound; for Fold Increase over UTC (caspase activity) / apoptosis in T47D cells: 200 nM; for Fold Increase over UTC (caspase activity): relative to untreated control; for apoptosis in T47D cells: caspase assay, conclusion from Tables 9-12.

The test system of another series is IL-12 mRNA. The series can be described thus: IL-12 mRNA in LPS-activated primary murine macrophages. Type of series: cell-based, mouse. The conditions noted are these: normalized to LPS-treated cells without oligomeric compound; for IL-12 mRNA expression, −IFN % UTC: 300 nM oligomeric compound and LPS, no IFN-gamma pretreatment, single experiment; for IL-12 mRNA expression, +IFN % UTC: 300 nM oligomeric compound, stimulation with IFN-gamma and LPS, average of 2 experiments. As for the experimental part: To investigate the role of miRNAs in the immune response, oligomeric compounds of the present invention targeting miRNAs were tested for their effects upon lipopolysaccharide (LPS)-activated primary murine macrophages. Macrophages participate in the immune response, for example, in the recognition and phagocytosis of microorganisms, including bacteria. Interferon-gamma (IFN-gamma) released by helper T cells is one type of signal required for macrophage activation, and LPS can serve as an additional stimulus. LPS is a component of the gram-negative bacterial cell wall and acts as an agonist for toll-like receptor 4 (TLR4), the primary LPS receptor expressed by macrophages. The proinflammatory cytokines interleukin-12 (IL-12) and interleukin-6 (IL-6) are induced by LPS treatment of macrophages, thus the expression of the mRNAs encoding these cytokines was used to evaluate the response of macrophages to LPS following treatment with oligomeric compounds targeting miRNAs.
Macrophages were isolated as follows. Female C57B1/6 mice (Charles River Laboratories, Wilmington, Mass.) were injected intraperitoneally with 1 ml 3% thioglycollate broth (Sigma-Aldrich, St. Louis, Mo.), and peritoneal macrophage cells were isolated by peritoneal lavage 4 days later. The cells were plated in 96-well plates at 40,000 cells/well for one hour in serum-free RPMI adjusted to contain 10 mM HEPES (Invitrogen Life Technologies, Carlsbad, Calif.), allowed to adhere, then non-adherent cells were washed away and the media was replaced with RPMI containing 10 mM HEPES, 10% FBS and penicillin/streptomycin (“complete” RPMI; Invitrogen Life Technologies, Carlsbad, Calif.).
Oligomeric compounds were introduced into the cells using the non-liposomal transfection reagent FuGENE 6 Transfection Reagent (Roche Diagnostics Corp., Indianapolis, Ind.). Oligomeric compound was mixed with FuGENE 6 in 1 mL of serum-free RPMI to achieve a concentration of 10 μL FuGENE per 1000 nM oligomeric compound. The oligomeric compound/FuGENE complex was allowed to form at room temperature for 20 minutes. This mixture was diluted to the desired concentration of oligomeric compound by the addition of the appropriate volume of complete RPMI. The final ratio of FuGENE 6 to oligomeric compound was 1 μL of FuGENE 6 per 100 nM oligomeric compound. A volume of 100 μL of oligomeric compound/FuGENE/RPMI was added to each well of the 96-well plate in which the macrophages were cultured. Each oligomeric compound treatment was repeated in triplicate.
Following oligomeric compound treatment, cells were stimultated with LPS. Cells were cultured in the presence of the transfection complex for approximately 24 to 28 hours at 37° C. and 5% CO2, after which the medium containing the transfection complex was removed from the cells, and complete RPMI containing 100 ng/mL LPS (Sigma-Aldrich Corp., St. Louis, Mo.) was added to the cells for a period of approximately 24 hours. Control samples included (1) cells receiving no oligomeric compound, stimulated with LPS and (2) cells receiving neither oligomeric compound nor LPS treatment.
In another embodiment, following oligomeric compound treatment, cells were first activated by IFN-gamma, to amplify the response to LPS. Cells were cultured in the presence of the transfection complex for approximately 24 hours at 37° C. and 5% CO2, at which point the medium containing the transfection complex was removed from the cells, and complete RPMI containing 100 ng/mL recombinant mouse IFN-gamma (R&D Systems, Minneapolis, Minn.) was added to the cells. After the 4 hour treatment with INF-gamma, cells were treated with 100 ng/mL LPS for approximately 24 hours. Control samples included (1) cells receiving no oligomeric compound, stimulated with LPS and (2) cells receiving neither oligomeric compound nor LPS treatment. […]

As to “328410 (antisense eG*eG*eG*e[5mC]*e[5mC]*dT*dA*dT*d[5mC]*d[5mC]*dA*dA*dA*dG*dT*eG*eA*e[5mC]*eA*eG) [compound 328410]”, the “Fold Increase over UTC (caspase-3 activity, apoptosis)” value in the series with T47D cells (experiment of Table 11) was 1.5 fold. Consider “340345 (antisense GGAACUUAGCCACUGUGAA; all 2'-MOE, all phosphorothioate, methylation of C and T or U not given here) [compound 340345]”, for which, in the series with IL-12 mRNA, the “IL-12 mRNA expression, −IFN % UTC” value is recorded as 104 % UTC and the “IL-12 mRNA expression, +IFN % UTC” value came to 78 % UTC. As for “328375 (eT*eA*e[5mC]*e[5mC]*eA*dT*dA*d[5mC]*dA*dG*dA*dA*dA*d[5mC]*dA*e[5mC]*eA*eG*e[5mC]*eA; antisense) [compound 328375]”, the “Fold Increase over UTC (caspase-3 activity, apoptosis)” value in the series on T47D cells (experiment of Table 10) came out at 0.9 fold.

As to “328641 (eT*eG*e[5mC]*eT*eG*dA*d[5mC]*dT*dG*d[5mC]*dT*d[5mC]*dG*d[5mC]*d[5mC]*e[5mC]*eT*eT*eG*e[5mC]; antisense) [compound 328641]”, in the series on T47D cells (experiment of Table 12), the “Fold Increase over UTC (caspase-3 activity, apoptosis)” value stood at 1.1 fold. Regarding “328372 (eT*eT*eT*eG*eA*dT*dA*dG*dT*dT*dT*dA*dG*dA*d[5mC]*eA*e[5mC]*eA*eA*eA; antisense) [compound 328372]”, the “Fold Increase over UTC (caspase activity)” value with T47D cells stood at 1.0. “SEQ ID NO 502: gapmer of Tables 9-12 having this SEQ ID NO (antisense eG*e[5mC]*eT*eG*eG*d[5mC]*d[5mC]*dT*dG*dA*dT*dA*dG*d[5mC]*d[5mC]*e[5mC]*eT*eT*e[5mC]*eT)”: the “apoptosis in T47D cells” value in the series on T47D cells was “induce apoptosis”.

Regarding “CTCTAGCTCCCTCACCAGTG (antisense; same sequence listed as MOE 5-10-5 gapmer and as uniform MOE, further chemistry not given here) [ISIS 328696]”, the “apoptosis in T47D cells” value in the series on T47D cells is listed as “induce apoptosis”.

On to “328378 (e[5mC]*eA*e[5mC]*e[5mC]*e[5mC]*dT*d[5mC]*d[5mC]*dA*dG*dT*dG*d[5mC]*dT*dG*eT*eT*eA*eG*eT; antisense) [compound 328378]”, for which the “Fold Increase over UTC (caspase activity)” value in the series on T47D cells amounted to 1.0. As for “328376 (eT*e[5mC]*eA*e[5mC]*eA*dA*dT*d[5mC]*d[5mC]*d[5mC]*d[5mC]*dA*d[5mC]*d[5mC]*dA*eA*eA*e[5mC]*eT*e[5mC]; antisense) [compound 328376]”, in the series with T47D cells (experiment of Table 11), the “Fold Increase over UTC (caspase-3 activity, apoptosis)” value was found to be 0.7 fold.

Take “328657 (eA*eA*eA*eA*eA*dT*dA*dA*dT*d[5mC]*dT*d[5mC]*dT*dG*d[5mC]*eA*e[5mC]*eA*eG*eG; antisense) [compound 328657]”: the “Fold Increase over UTC (caspase-3 activity, apoptosis)” value with T47D cells (experiment of Table 10) was 0.8 fold.

“328371 (eT*e[5mC]*e[5mC]*eA*eT*dA*dG*d[5mC]*dT*dT*dA*dG*d[5mC]*dA*dG*eG*eT*e[5mC]*e[5mC]*eA; antisense) [compound 328371]”: the “Fold Increase over UTC (caspase activity)” value in the series with T47D cells is on record as 1.2.

For “328435 (antisense eT*e[5mC]*eT*eA*eA*dG*dG*dG*dG*dT*d[5mC]*dA*d[5mC]*dA*dG*eA*eA*eG*eG*eT) [compound 328435]”, the “Fold Increase over UTC (caspase-3 activity, apoptosis)” value in the series on T47D cells (experiment of Table 11) is recorded as 1.3 fold. As to “SEQ ID NO 528: gapmer of Tables 9-12 having this SEQ ID NO (antisense eT*eG*eT*eT*eG*d[5mC]*d[5mC]*dT*dA*dA*d[5mC]*dG*dA*dA*d[5mC]*eA*e[5mC]*eA*eG*eA)”, in the series with T47D cells, the “apoptosis in T47D cells” value is recorded as “prevent or have a protective effect from apoptosis”.

As for “SEQ ID NO 535: gapmer of Tables 9-12 having this SEQ ID NO (antisense eG*eG*eT*eT*eG*dG*d[5mC]*d[5mC]*dG*d[5mC]*dA*dG*dA*d[5mC]*dT*e[5mC]*eG*eT*eA*e[5mC])”, in the series on T47D cells, the “apoptosis in T47D cells” value is reported as “induce apoptosis”. For “328386 (eA*e[5mC]*e[5mC]*eT*eG*dT*dG*dT*dA*dA*d[5mC]*dA*dG*d[5mC]*d[5mC]*eG*eT*eG*eT*eA; antisense) [compound 328386]”, the “Fold Increase over UTC (caspase-3 activity, apoptosis)” value with T47D cells (experiment of Table 11) worked out at 0.7 fold.

On to “328638 (e[5mC]*e[5mC]*eG*eA*eG*dG*dG*dT*d[5mC]*dT*dA*dA*d[5mC]*d[5mC]*d[5mC]*eA*eG*e[5mC]*e[5mC]*e[5mC]; antisense) [compound 328638]”, for which the “Fold Increase over UTC (caspase-3 activity, apoptosis)” value with T47D cells (experiment of Table 11) worked out at 0.8 fold. As for “328643 (e[5mC]*eA*eT*eG*eA*dA*dG*dA*dA*dA*dG*dA*d[5mC]*dT*dG*eT*eA*eG*e[5mC]*e[5mC]; antisense) [compound 328643]”, the “Fold Increase over UTC (caspase activity)” value in the series on T47D cells was 0.9. “328422 (antisense eG*eA*eG*eG*eA*dT*dG*dT*d[5mC]*dT*dG*dT*dG*dA*dA*eT*eA*eG*e[5mC]*e[5mC]) [compound 328422]”: the “Fold Increase over UTC (caspase-3 activity, apoptosis)” value in the series with T47D cells (experiment of Table 10) is 1.0 fold. Turning to “341790 (antisense CGAAGGCAACACGGAUAACCUA; all 2'-MOE, all phosphorothioate, methylation of C and T or U not given here) [compound 341790]”, in the series on IL-12 mRNA, the “IL-12 mRNA expression, −IFN % UTC” value amounted to 318 % UTC and the “IL-12 mRNA expression, +IFN % UTC” value is on record as 84 % UTC.

On to “AGAATGAGTTGACATACCAA (antisense; same sequence listed as MOE 5-10-5 gapmer and as uniform MOE, further chemistry not given here) [ISIS 328658]”, for which the “apoptosis in T47D cells” value with T47D cells is recorded as “induce apoptosis”. As for “328393 (eG*e[5mC]*eT*eG*eG*d[5mC]*d[5mC]*dT*dG*dA*dT*dA*dG*d[5mC]*d[5mC]*e[5mC]*eT*eT*e[5mC]*eT; antisense) [compound 328393]”, the “Fold Increase over UTC (caspase-3 activity, apoptosis)” value in the series with T47D cells (experiment of Table 11) is listed as 1.5 fold. As to “328418 (antisense eA*eG*eT*eG*eT*d[5mC]*dT*d[5mC]*dA*dT*d[5mC]*dG*d[5mC]*dA*dA*eA*e[5mC]*eT*eT*eA) [compound 328418]”, the “Fold Increase over UTC (caspase-3 activity, apoptosis)” value with T47D cells (experiment of Table 12) was 1.0 fold. As to “341786 (antisense CGCAAGGUCGGUUCUACGGGUG; all 2'-MOE, all phosphorothioate, methylation of C and T or U not given here) [compound 341786]”, in the series with IL-12 mRNA, the “IL-12 mRNA expression, −IFN % UTC” value is recorded as 266 % UTC and the “IL-12 mRNA expression, +IFN % UTC” value was found to be 99 % UTC. As to “SEQ ID NO 543: gapmer of Tables 9-12 having this SEQ ID NO (e[5mC]*eG*e[5mC]*eA*eT*d[5mC]*dT*dT*dG*dA*d[5mC]*dT*dG*dT*dA*eG*e[5mC]*eA*eT*eG)”, the “apoptosis in T47D cells” value in the series with T47D cells is given as “prevent or have a protective effect from apoptosis”. Turning to “341815 (antisense CAUCGUUACCAGACAGUGUUA; all 2'-MOE, all phosphorothioate, methylation of C and T or U not given here) [compound 341815]”, in the series on IL-12 mRNA, the “IL-12 mRNA expression, −IFN % UTC” value amounted to 190 % UTC and the “IL-12 mRNA expression, +IFN % UTC” value was determined as 157 % UTC. For “341811 (antisense UCCACAUGGAGUUGCUGUUACA; all 2'-MOE, all phosphorothioate, methylation of C and T or U not given here) [compound 341811]”, in that order: 154 % UTC and 88 % UTC. For “341793 (antisense CCAUAAAGUAGGAAACACUACA; all 2'-MOE, all phosphorothioate, methylation of C and T or U not given here) [compound 341793]” the same measures were 202 % UTC and 147 % UTC.
